Reference: PMC5591184 (2017)

Columns and labels:
[1] = test system: AG3(T2AG3)3 (DNA, G4) AGGGTTAGGGTTAGGGTTAGGG; test: UV-vis absorption titration; conditions: 100 mM NaCl; 10 mM Tris-HCl, 1 mM EDTA, pH 7.5, room temperature; 2 μM ZnTMPyP4
[2] = test system: (G4T4G4)2 (DNA, G4) GGGGTTTTGGGG; test: UV-vis absorption titration; conditions: 100 mM NaCl; 10 mM Tris-HCl, 1 mM EDTA, pH 7.5, room temperature; 2 μM ZnTMPyP4
(TG4T)4 (DNA, G4) TGGGGT = test: UV-vis absorption titration; conditions: 100 mM KCl; 10 mM Tris-HCl, 1 mM EDTA, pH 7.5, room temperature; 2 μM ZnTMPyP4
[3] = test system: T-G8 (DNA, G4) AGGGTTATGGTTAGGGTTAGGG; test: triplet decay, laser flash photolysis; conditions: 100 mM NaCl; 10 mM Tris-HCl, 1 mM EDTA, pH 7.5, room temperature; 2 μM ZnTMPyP4; intercalation 63%
[4] = test system: T-G10 (DNA, G4) AGGGTTAGGTTTAGGGTTAGGG; test: triplet decay, laser flash photolysis; conditions: 100 mM NaCl; 10 mM Tris-HCl, 1 mM EDTA, pH 7.5, room temperature; 2 μM ZnTMPyP4; intercalation 53%

binding constants [1]: 3.6e+06 M⁻¹ | binding constants [2]: 100000 M⁻¹ | binding constants ((TG4T)4 (DNA, G4) TGGGGT): 1e+06 M⁻¹ | binding [3]: yes | binding [4]: yes
Compound: C[n+]1ccc(-c2c3nc(c(-c4cc[n+](C)cc4)c4ccc([n-]4)c(-c4cc[n+](C)cc4)c4nc(c(-c5cc[n+](C)cc5)c5ccc2[n-]5)C=C4)C=C3)cc1.O.[Zn+2]
